This is an account of results in US11155546B2, “4,6,7-trisubstituted 1,2-dihydropyrrolo[3,4-c]pyridin/pyrimidin-3-one derivatives and uses thereof” (SHANGHAI HAIYAN PHARMACEUTICAL TECHNOLOGY CO., LTD., priority 2017, dated 2021).

The target in data set [1] is BTK WT (Homo sapiens (Human), UniProt Q06187). Kind of data set: Lantha screening kinase reaction, inhibition of BTK WT. It counts as biochemical. As for the experimental part: The compound was predissolved in 100% DMSO. 10 mM drug stock solution was obtained by dissolution at room temperature and then serially diluted with 8 vol % DMSO solution to a final concentration of 10-0.005 μM. […] Among the wells, the kinase in the blank well was replaced with a reaction buffer and the kinase well (Enzyme) was not added with any drug. After shaking at 25° C. for 60 minutes in the dark, 10 μl of Detection Solution (mixture of Invitrogen PV3528 and EDTA, which was diluted with TR-FRET dilution buffer, the working concentration of EDTA was 5 mM, the working concentration of Lanthascreening Tb PY20 antibody was 0.2 nM) was added and shaken at room temperature for 30 minutes. The plates were read on a VictorX5 fluorescent plate reader (PerkinElmer) and the light absorption at an excitation wavelength of 340 nm and emission wavelengths of 500 nm and 520 nm was measured.
Sequence of BTK WT (Q06187 whole entry): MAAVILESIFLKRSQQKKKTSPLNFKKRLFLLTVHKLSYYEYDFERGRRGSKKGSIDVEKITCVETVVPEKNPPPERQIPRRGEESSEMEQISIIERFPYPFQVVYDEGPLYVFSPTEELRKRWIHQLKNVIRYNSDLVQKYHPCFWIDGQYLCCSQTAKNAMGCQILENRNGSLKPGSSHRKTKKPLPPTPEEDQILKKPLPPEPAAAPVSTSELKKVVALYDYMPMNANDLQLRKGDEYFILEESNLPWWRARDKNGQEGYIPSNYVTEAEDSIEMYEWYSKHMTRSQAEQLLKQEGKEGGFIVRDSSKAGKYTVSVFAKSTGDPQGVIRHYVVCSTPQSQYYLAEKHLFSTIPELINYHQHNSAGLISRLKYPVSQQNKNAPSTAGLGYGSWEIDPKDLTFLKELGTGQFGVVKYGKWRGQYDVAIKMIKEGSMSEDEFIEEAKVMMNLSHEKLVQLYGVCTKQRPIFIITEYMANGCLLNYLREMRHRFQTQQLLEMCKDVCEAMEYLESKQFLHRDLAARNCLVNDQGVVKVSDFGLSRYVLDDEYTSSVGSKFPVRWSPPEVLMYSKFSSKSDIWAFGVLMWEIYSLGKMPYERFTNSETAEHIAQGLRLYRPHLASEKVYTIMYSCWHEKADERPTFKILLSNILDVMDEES
The calculation method for the inhibition ratio (referring to the specification of Invitrogen, PV3363) was as follows: Emission ratio (ER):Coumarin Emission (520 nm)/Fluorescein Emission (500 nm) 1. The inhibition ratio (IR):(ERkinase−ERtest compound)/(ERkinase−ERblank)×100%. 2.
The half-inhibitory concentration IC50 was calculated by fitting with XLFIT5.0 software (IDBS, UK).

For data set [2], the target named is wild-type EGFR kinase (Homo sapiens (Human), UniProt P00533). Kind of data set: Wild type EGFR kinase inhibition test (z-lyte). It counts as biochemical. To be noted: 10 μM ATP; read-out: EGFR WT IC50. From the text:
All the following reagents used in z-lyte test are commercially available from Invitrogen.
The calculation method for the inhibition ratio (referring to the specification of Invitrogen, PV3363) was as follows: ER=Coumarin Emission(450 nm)/Fluorescein Emission(520 nm) 1. Phosphorylation ratio=(1−((ER×C3520nm−C3450nm)/((C1450nm−C3450nm)+ER×(C3520nm−C1520nm))))×100% 2. Inhibition ratio (IR)=(1−phosphorylation ratio of the test compound)/(phosphorylation ratio of C2))×100% 3.
The half-inhibitory concentration IC50 was calculated by fitting with XLFIT 5.0 software (IDBS, UK).

Data set [3] is described as follows: in vivo. Conditions: male, ICR, mouse, in vivo, po, 30 mg/kg. How it is done:
Test Animals: ICR mice, weight 28-30 g, male, totally 12, purchased from SLAC Laboratory Animal Co., Ltd. Mice were fasting one night before administration and freely fed 4 hours after administration.
Administration and Blood collection: 6 mice were administered intragastrically (PO) in a administered dosage of 30 mg/kg and a administered volume of 10 mL/kg. One administration route was subjected with 6 mice, blood samples of three mice were collected at one time point, and blood samples of another three mice were collected at alternate time point alternately. Blood was collected at 8 time points of 0.083, 0.25, 0.5, 1, 2, 4, 8, 24 h after administration respectively.
Animals were manually controlled at the time of collection and approximately 80 μL of blood was collected from the mice fundus venous plexus into a tube containing K2EDTA. The collected blood sample was put on wet ice, centrifuged within 15 min (8000 rpm, 4 min at 4° C.), and then the plasma sample was taken and stored at minus 20° C. till analysis. The compounds were prepared on the day of the experiment.
Solvent excipient information: DMSO (brand: Sigma, batch number: SHBD2446V); 2-hydroxypropyl-3-cyclodextrin (brand: Sigma, batch number: BCBN8227V), acetic acid (brand: Sinopharm Group, batch number: 20150616), sodium acetate (Brand: GENERAL-REAGENT, batch number: P1246037).
Preparation of a 3 mg/mL PO dosing solution: the solvent was a solution of 5% DMSO and 95% PH4.5 (sodium acetate-acetate) in 20% of 2-hydroxypropyl-β-cyclodextrin.
Analytical method: Plasma samples were analyzed by liquid chromatography-tandem mass spectrometry (Instrument type: Triple Quad™ 4000).
Preparation of the standard curve: preparing a standard curve of the test compound 1n the plasma matrix of ICR mice with a linear range of 1.00-3000 ng/mL, and preparing control samples at low, medium and high concentrations of 3 ng/mL, 500 ng/mL, and 2400 ng/mL respectively.
Treatment of biological samples: the frozen plasma samples were thawed on ice, and after the samples were thawed, they were vortexed on a vortex for 5 min. 20 μL of plasma sample was added to a 96-well plate, and 200 μL of acetonitrile (brand: Merck, Lot: 1854029643) containing an internal standard dexamethasone (Brand: NIFDC, Lot: 1N2V-DPGY, 2000 ng/mL) was added to precipitate protein, which were vortexed for 5 min, and then centrifuged at 3700 rpm and 4° C. for 15 min. The supernatant was extracted and twice centrifuged under the same conditions, and finally 2 μL of the supernatant solution was analyzed by LC-MS/MS.

Sequence of wild-type EGFR kinase (P00533 25-1210): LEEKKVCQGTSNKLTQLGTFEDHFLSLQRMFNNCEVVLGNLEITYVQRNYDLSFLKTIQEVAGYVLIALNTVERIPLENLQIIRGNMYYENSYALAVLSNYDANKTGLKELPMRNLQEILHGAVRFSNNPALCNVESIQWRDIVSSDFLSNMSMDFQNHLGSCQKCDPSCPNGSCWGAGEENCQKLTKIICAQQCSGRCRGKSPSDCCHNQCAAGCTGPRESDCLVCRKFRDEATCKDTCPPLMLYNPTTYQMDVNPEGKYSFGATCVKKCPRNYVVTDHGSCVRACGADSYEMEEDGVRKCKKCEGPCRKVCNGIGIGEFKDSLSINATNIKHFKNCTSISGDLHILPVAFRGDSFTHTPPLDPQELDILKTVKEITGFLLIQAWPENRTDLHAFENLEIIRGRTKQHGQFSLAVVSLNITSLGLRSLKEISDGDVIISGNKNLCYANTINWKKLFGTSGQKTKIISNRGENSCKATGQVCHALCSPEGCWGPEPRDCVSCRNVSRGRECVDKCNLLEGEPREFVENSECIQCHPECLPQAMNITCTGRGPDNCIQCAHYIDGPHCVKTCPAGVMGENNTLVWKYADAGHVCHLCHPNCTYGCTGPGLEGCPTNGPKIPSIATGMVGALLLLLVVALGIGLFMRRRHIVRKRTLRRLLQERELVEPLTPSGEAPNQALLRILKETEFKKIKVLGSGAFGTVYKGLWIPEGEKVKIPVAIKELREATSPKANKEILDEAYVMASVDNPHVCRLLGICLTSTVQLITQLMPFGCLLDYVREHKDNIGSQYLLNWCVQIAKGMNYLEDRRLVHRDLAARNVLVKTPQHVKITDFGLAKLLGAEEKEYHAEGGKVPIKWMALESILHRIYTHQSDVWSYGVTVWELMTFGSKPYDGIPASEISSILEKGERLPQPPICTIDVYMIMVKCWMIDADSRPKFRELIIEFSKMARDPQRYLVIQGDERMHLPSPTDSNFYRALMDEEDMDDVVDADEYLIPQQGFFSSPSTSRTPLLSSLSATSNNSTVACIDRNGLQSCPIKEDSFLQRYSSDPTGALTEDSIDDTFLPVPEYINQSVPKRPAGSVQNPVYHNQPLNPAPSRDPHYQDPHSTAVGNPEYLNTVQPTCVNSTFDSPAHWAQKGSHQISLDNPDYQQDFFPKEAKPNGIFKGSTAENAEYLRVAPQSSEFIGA

For the molecule `C=CC(=O)N1CCC(Nc2nc(Nc3ccc(OCCOC)cc3)c3c(c2F)CNC3=O)C1` (stereo not drawn) [Compound G-9], the IC50 – broadly, the point on the concentration scale where inhibition reaches its midpoint – in data set [1] amounted to 7 nM; in data set [2], 1010 nM.

On to `C=CC(=O)N1CCCC(Nc2nc(Nc3ccc(OCCO)cc3)c3c(c2F)CNC3=O)C1` (stereo not drawn) [Compound G-16], for which the IC50 in data set [1] was 2 nM; in data set [2], 2750 nM.

Turning to `C=CC(=O)N1CCCC(Nc2nc(Nc3ccc(N4CCN(C)CC4)nc3)c3c(c2F)CNC3=O)C1` (stereo not drawn) [Compound G-18], the IC50 in data set [1] was 41 nM; in data set [2], 1600 nM. Regarding `C=CC(=O)N1CCCC(Nc2nc(Nc3ccc(N4CCC(O)C(C)(C)C4)cn3)c3c(c2F)CNC3=O)C1` (stereo not drawn) [Compound G-21], the IC50 in data set [1] was determined as 59 nM; in data set [2], 8310 nM. `C=CC(=O)N1CCCC(Nc2nc(Nc3ccc(N4CCN(C5COC5)CC4C)cn3)c3c(c2F)CNC3=O)C1` (stereo not drawn) [Compound G-22] yielded an IC50 in data set [1] of 66 nM. With `C=CC(=O)N1CCCC(Nc2nc(Nc3ccc(C(=O)N4CCOCC4)cc3)c3c(c2F)CNC3=O)C1` (stereo not drawn) [Compound G-24], the IC50 turned out to be 5 nM in data set [1] and 1790 nM in data set [2].

For `C=CC(=O)N1CCCC(Nc2nc(Nc3cnn(C)c3)c3c(c2F)CNC3=O)C1` (stereo not drawn) [Compound G-38], the values for the IC50 in data set [1] and in data set [2] were 2 nM and 1290 nM, respectively.

With `C=CC(=O)N1CCCCC(Nc2nc(-c3cnn(C)c3)c3c(c2F)CNC3=O)C1` (stereo not drawn) [Compound G-47], the IC50 in data set [1] was 75 nM; in data set [2], above 10000 nM. Turning to `C=CC(=O)N1CCCC(Nc2nc(-c3cnc(C)s3)c3c(c2F)CNC3=O)C1` (stereo not drawn) [Compound G-53], the IC50 in data set [1] amounted to 51 nM; in data set [2] it was 7440 nM. For the molecule `C=CC(=O)N1CCCC(Nc2nc(-c3cnn(C)c3)c3c(c2F)CNC3=O)C1` (stereo not drawn) [Compound G-54], the IC50 was 15 nM in data set [1] and above 10000 nM in data set [2].

For the molecule `C=CC(=O)N1CCCC(Nc2nc3c(c(-c4cnn(C)c4)n2)C(=O)NC3)C1` (stereo not drawn) [Compound G-58, 2-(1-acryloylpiperidin-3-ylamino)-4-(1-methyl-1H-pyrazole-4-yl)-6,7-dihydrogen-5H-pyrrolo[3,4-d]pyrimidine-5(2H)-one], the results for the IC50 in data set [1] and in data set [2] were 80 nM and above 10000 nM, respectively. Consider `C=CC(=O)N1CCCC(N(C)c2nc(-c3cnn(CCN4CCOCC4)c3)c3c(c2F)CNC3=O)C1` (stereo not drawn) [Compound G-64, 6-((1-acryloylpiperidin-3-yl)(methyl)amino)-7-fluoro-4-(1-(2-morpholinethyl)-1H-pyrazole-4-yl)-1H-pyrrolo[3,4-c]pyridine-3(2H)-one], for which the values for the IC50 in data set [1] and in data set [2] were 62 nM and above 10000 nM, respectively. In the same order, the values of `C=CC(=O)N1CC(N(C)c2nc(-c3cnn(C)c3)c3c(c2F)CNC3=O)CCC1C` (stereo not drawn) [Compound G-65, 6-((1-acryloyl-6-methylpiperidin-3-yl)(methyl)amino)-7-fluoro-4-(1-methyl-1H-pyrazole-4-yl)-1H-pyrrolo[3,4-c]pyridine-3(2H)-one] are 7 nM and above 10000 nM.

With `C=CC(=O)N1CCCC(N(C)c2nc(-c3cnc(C)s3)c3c(c2F)CNC3=O)C1` (stereo not drawn) [Compound G-66, 6-((1-acryloylpiperidin-3-yl)(methyl)amino)-7-fluoro-4-(2-methylthiazole-5-yl)-1H-pyrrolo[3,4-c]pyridine-3(2H)-one], the IC50 in data set [1] is 15 nM; in data set [2] it was above 10000 nM. In the case of `C=CC(=O)N1CCCC(N(C)c2nc(Nc3cnn(C)c3)c3c(c2F)CNC3=O)C1` (stereo not drawn) [Compound G-70, 6-((1-acryloylpiperidin-3-yl)(methyl)amino)-7-fluoro-4-(1-methyl-1H-pyrazole-4-ylamino)-1H-pyrrolo[3,4-c]pyridine-3(2H)-one], the results for the IC50 in data set [1] and in data set [2] were 5 nM and above 10000 nM, respectively. In the case of `C=CC(=O)N1CCCCC(N(C)c2nc(Nc3ccc(N4CCOCC4)cc3)c3c(c2F)CNC3=O)C1` (stereo not drawn) [Compound G-73, 6-((1-acryloylazacycloheptan-3-yl)(methyl)amino)-7-fluoro-4-(4-morpholin)-1H-pyrrolo[3,4-c]pyridine-3(2H)-one], the values for the IC50 in data set [1] and in data set [2] were 5 nM and 1560 nM, respectively.

With `C=CC(=O)N1CCCC(N(CC)c2nc(Nc3ccc(N4CCOCC4)cc3)c3c(c2F)CNC3=O)C1` (stereo not drawn) [Compound G-74, 6-((1-acryloylpiperidin-3-yl)(ethyl)amino)-7-fluoro-4-(4-morpholin)-1H-pyrrolo[3,4-c]pyridine-3(2H)-one], the IC50 in data set [1] stood at 7 nM; in data set [2], 1370 nM. In the same order, the values of `C=CC(=O)N1CCCC(N(C)c2nc3c(c(Nc4cnn(C)c4)n2)C(=O)NC3)C1` (stereo not drawn) [Compound G-75, 2-((1-acryloylpiperidin-3-yl)(methyl)amino)-4-(1-methyl-1H-pyrazole-4-ylamino)-6,7-dihydrogen-5H-pyrrolo[3,4-d]pyrimidine-5-one] are 6 nM and 1630 nM.

Regarding `C=CC(=O)N1CCC2(CCN(c3nc(-c4cnn(C)c4)c4c(c3F)CNC4=O)C2)C1` (stereo not drawn) [Compound G-77], the IC50 was 51 nM in data set [1] and above 10000 nM in data set [2]. As for `C=CC(=O)N1CC2CCN(c3nc(Nc4cnn(C)c4)c4c(c3F)CNC4=O)C2C1` (stereo not drawn) [Compound G-84], the results for the IC50 in data set [1] and in data set [2] were 89 nM and above 10000 nM, respectively.

With `C=CC(=O)N1CC2CN(c3nc(-c4cnn(C)c4)c4c(c3F)CNC4=O)CC2C1` (stereo not drawn) [Compound G-89], inhibition in data set [1] was half-maximal at 5 nM (IC50). Regarding `C=CC(=O)N1CCC[C@@H](Nc2nc(Nc3ccc(N4CCN(C5COC5)C[C@@H]4C)c(F)c3)c3c(c2F)CNC3=O)C1` [Compound G-91], in data set [3], the AUC (usually concentration integrated over time) is 3150 ng·h/mL; the highest level (Cmax) was 2910 ng/mL; the Tmax – broadly, the time at which the peak concentration occurs – stood at 0.25 h; the bioavailability (usually dose-corrected exposure relative to a reference, in per cent) stood at 21.3%. In data set [3], the half-life – broadly, how long it takes for the measured level to halve – was 4.7 h. The molecule also returned an IC50 in data set [1] of 5 nM. Take `C=CC(=O)N1C[C@H](N(C)c2nc(Nc3ccc(N4CCOCC4)c(F)c3)c3c(c2F)CNC3=O)CC[C@@H]1C` [Compound G-92]: in data set [1], the half-maximal inhibitory concentration (IC50) was 8 nM. On to `C=CC(=O)N1CCC[C@@H](N(C)c2nc(-c3cnc(C)s3)c3c(c2F)CNC3=O)C1` [Compound G-94], for which the 50% inhibitory concentration (IC50) in data set [1] worked out at 20 nM. The same measure, in the same setting: then `C=CC(=O)N1C[C@H](Nc2nc(Nc3ccc(N4CCN(C5COC5)C[C@@H]4C)c(F)c3)c3c(c2F)CNC3=O)CC[C@@H]1C` [Compound G-95], with 5 nM; and `C=CC(=O)N1CCC[C@@H](Nc2nc(Nc3ccc(CN4CCOCC4)cc3)c3c(c2F)CNC3=O)C1` [Compound G-97], with 5 nM; and `C=CC(=O)N1C[C@H](N(C)c2nc(-c3cnn(C)c3)c3c(c2F)CNC3=O)CC[C@H]1C` [Compound G-99], with 18 nM. As to `C=CC(=O)N1CCC[C@@H](Nc2nc(Nc3ccc(N4CCOC[C@@H]4C)cc3F)c3c(c2F)CNC3=O)C1` [Compound G-102], the IC50 in data set [1] worked out at 5 nM. The same measure, in the same setting: then `C=CC(=O)N1CCC[C@@H](N(C)c2nc(-c3c[nH]c(C)n3)c3c(c2F)CNC3=O)C1` [Compound G-105], with 8 nM. On the same count and under the same terms, under `C=CC(=O)N1CCC[C@@H](Nc2cc3c(c(Nc4ccc(N5CCOCC5)cc4)n2)C(=O)NC3)C1` [Compound G-107] stands 5 nM.
